Test results published in patent US9676771B2, “Compounds for inhibiting drug-resistant strains of HIV-1 integrase” (priority 2013, dated 2017).
Where two headings read alike, the source gives them in different places.

What was measured:
HIV-1 integrase = HIV-1 integrase (Human immunodeficiency virus type 1 group M subtype B, UniProt P12497); experiment: biochemical; assay type: biochemical
In short: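 Compounds or DMSO added to 20 nM DNA and 400 nM integrase in 50 mM MOPS pH 7.2, 7.5 mM MgCl2, 14 mM 2-mercaptoethanol; 2 h at 37° C, quenched with formamide/SDS loading buffer. Products resolved on gels, imaged and quantified by densitometry.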

in vitro = assay type: cell-based, human; details: human, 50% reduction in the level of ATP in HOS cells
Method: Cellular Cytotoxicity Assay.
On the day of the screen, cells were treated with compounds at the appropriate concentration range chosen and incubated at 37° C. for 48 hrs. Cytotoxicity was measured by monitoring ATP levels via a luciferase reporter assay. Cells were lysed in 50 μL cell lysis buffer (PerkinElmer, Waltham, Mass.) and shaken at 700 rpm at room temperature for 5 mins After the addition of 50 μL of ATPlite buffer (PerkinElmer) directly onto the lysed cells and shaking at 700 rpm at room temperature for 5 mins, ATP levels were monitored by measuring luciferase activity using a microplate reader. Activity was normalized to cytotoxicity in the absence of target compounds. KaleidaGraph (Synergy Software, Reading, Pa.) was used to perform regression analysis on the data. CC50 values were determined from the fit model.

[1] = system: HIV-1 constructs containing wild-type IN; experiment: microbe, parasite or virus in culture; assay type: cell-based; details: for EC50: Human immunodeficiency virus 1, WT IN, read-out: EC50 (nM, WT)
Excerpt: (§1) Single-Round HIV-1 Infectivity Assay.
(§2) Human embryonyl kidney cell culture cell line 293 was acquired from the American type Culture Collection (ATCC).
(§3) The virus-containing supernatants were then harvested, clarified by low-speed centrifugation, filtrated, and diluted for preparation in infection assays. […] Activity was normalized to infectivity in the absence of target compounds. KaleidaGraph (Synergy Software, Reading, Pa.) was used to perform regression analysis on the data. EC50 values were determined from the fit model.

[2] = system: HIV-1 constructs containing mutant IN G140S-Q148H; experiment: microbe, parasite or virus in culture; assay type: cell-based; details: Human immunodeficiency virus 1
Excerpt: as §1, §2, §3
(§4) pNLNgoMIVR^−ΔEnv.LUC has been described previously (Zhao et al. 2008). The integrase codon reading frame was removed from pNLNgoMIVR^−ΔEnv LUC (between KpnI and SalI sites) and placed between the KpnI and SalI sites of pBluescript II KS+. Using that construct as the wild-type template, we prepared the following HIV-1 Integrase-resistant mutants via the QuikChange II XL (Stratagene, La Jolla, Calif.) site-directed mutagenesis protocol: H51Y, T66I, E92Q, G118R, Y143R, Q148H, Q148K, N155H, R263K, G140S+Q148H, G140A+Q148K, E138K+Q148K, and H51Y+R263K. The following sense with cognate antisense (not shown) oligonucleotides (Integrated DNA Technologies, Coralville, Iowa) were used in the mutagenesis: H51Y, 5′-[…]-3; T66I, 5′-[…]-3′; E92Q, 5′-[…]-3′; G118R, 5′-[…]-3′; E138K, 5′-[…]-3; G140A, 5′-[…]-3; G140S, 5′-[…]-3′; Y143R, 5′-[…]-3′; Q148H, 5′-[…]-3′; Q148K, 5′-[…]-3; N155H, 5′-[…]-3′; R263K 5′-[…]-3′. The double mutation G140S+Q148H was constructed by using the previously generated Q148H mutant and the appropriate oligonucleotide for the 2nd mutation, G140S. The double mutation G140A+Q148K was made by using the Q148K mutant and the appropriate oligonucleotide for the 2nd mutation, G140A. The double mutation E138K+Q148K was made by using the Q148K mutant and the appropriate oligonucleotide for the 2nd mutation, E138K. The double mutation H51Y+R263K was constructed by using the previously generated H51Y mutant and the appropriate oligonucleotides for the 2nd mutation, R263K. The DNA sequence of each construct was verified independently by DNA sequence determination. […] These DNA sequences were additionally checked independently by DNA sequence determination.

[3] = system: HIV-1 constructs containing mutant IN N155H; experiment: microbe, parasite or virus in culture; assay type: cell-based; details: Human immunodeficiency virus 1
Excerpt: as §1, §2, §3, §4

[4] = system: HIV-1 constructs containing mutant IN Y143R; experiment: microbe, parasite or virus in culture; assay type: cell-based; details: Human immunodeficiency virus 1
Excerpt: as §1, §2, §3, §4

[5] = Table 4, 3′-processing, read-out: IC50 (3^+-Processing)
[6] = Table 4, strand transfer, read-out: IC50 (Strand Transfer)
[7] = Table 3, G140S-Q148H double mutant, read-out: EC50 (nM, IN Mutants) SH
[8] = Table 3, read-out: EC50 (nM, IN Mutants) N155H
[9] = Table 3, read-out: EC50 (nM, IN Mutants) Y143R
[10] = Table 7, 3′-processing, read-out: IC50 (μM) 3′-P
[11] = Table 7, strand transfer, read-out: IC50 (μM) ST
[12] = Table 8, read-out: EC50 (nM, IN mutants) G140S/Q148H
[13] = Table 8, read-out: EC50 (nM, IN mutants) N155H
[14] = Table 8, read-out: EC50 (nM, IN mutants) Y143R
[15] = Table 10, strand transfer, read-out: IC50 (nM, ST)

Compound | IC50 (HIV-1 integrase; [10]) | IC50 (HIV-1 integrase; [11]) | CC50 (in vitro; Table 8) | EC50 ([1]; Table 8) | EC50 [2, 12] | EC50 [3, 13] | EC50 [4, 14] | further results
O=C(NCc1ccc(F)cc1F)c1c(N2CCOCC2)c2cccnc2n(O)c1=O [XZ373, N-(2,4-difluorobenzyl)-1-hydroxy-4-morpholino-2-oxo-1,2-dihydro-1,8-naphthyridine-3-carboxamide] | – | – | – | – | – | – | – | IC50 (HIV-1 integrase; [5]): 77000 ± 12000 nM; IC50 (HIV-1 integrase; [6]): 79 ± 13 nM; CC50 (in vitro; Table 3): 8400 ± 3200 nM; EC50 ([1]; Table 3): 1200 ± 260 nM; Si (selectivity index) ([1]; Table 3, ratio of CC50 to EC50): 7; EC50 [2, 7]: 6920 ± 2 nM; EC50 [3, 8]: 3730 ± 920 nM; EC50 [4, 9]: 1800 ± 870 nM
Nc1c(C(=O)NCc2ccc(F)cc2F)c(=O)n(O)c2ncc(CCCOCCO)cc12 [XZ432, 4-Amino-N-(2,4-difluorobenzyl)-1-hydroxy-6-(3-(2-hydroxyethoxy)propyl)-2-oxo-1,2-dihydro-1,8-naphthyridine-3-carboxamide] | 1500 ± 400 nM | 2.5 ± 0.4 nM | > 250000 nM | 1.6 nM | 35.3 nM | 4.2 nM | 1.2 nM | –
COC(=O)CNc1c(C(=O)NCc2ccc(F)cc2F)c(=O)n(O)c2ncc(CCCCCO)cc12 [XZ431, Methyl 2-((3-((2,4-difluorobenzyl)carbamoyl)-1-hydroxy-6-(5-hydroxypentyl)-2-oxo-1,2-dihydro-1,8-naphthyridin-4-yl)amino)acetate] | 2100 ± 500 nM | 3.7 ± 0.7 nM | > 250000 nM | 3.3 nM | 41.6 nM | 11.1 nM | 3.5 nM | –
O=C(NCc1ccc(F)cc1F)c1c(NC2CCCCCC2)c2cccnc2n(O)c1=O [XZ376, 4-(cycloheptylamino)-N-(2,4-difluorobenzyl)-1-hydroxy-2-oxo-1,2-dihydro-1,8-naphthyridine-3-carboxamide] | – | – | – | – | – | – | – | IC50 (HIV-1 integrase; [5]): 13100 ± 1100 nM; IC50 (HIV-1 integrase; [6]): 460 ± 180 nM; CC50 (in vitro; Table 3): 68700 ± 8700 nM; EC50 ([1]; Table 3): 12.2 ± 2.9 nM; Si (selectivity index) ([1]; Table 3, ratio of CC50 to EC50): 4,804; EC50 [2, 7]: 35 ± 11.7 nM; EC50 [3, 8]: 13.7 ± 3.8 nM; EC50 [4, 9]: 6.6 ± 1.7 nM
CN(C)c1c(C(=O)NCc2ccc(F)cc2F)c(=O)n(O)c2ncccc12 [XZ372, N-(2,4-difluorobenzyl)-4-(dimethylamino)-1-hydroxy-2-oxo-1,2-dihydro-1,8-naphthyridine-3-carboxamide] | – | – | – | – | – | – | – | IC50 (HIV-1 integrase; [5]): 21000 ± 2000 nM; IC50 (HIV-1 integrase; [6]): 87 ± 12 nM; CC50 (in vitro; Table 3): 13000 ± 1800 nM; EC50 ([1]; Table 3): 268 ± 8.03 nM; Si (selectivity index) ([1]; Table 3, ratio of CC50 to EC50): 49; EC50 [2, 7]: 6800 ± 0.4 nM; EC50 [3, 8]: 2300 ± 700 nM; EC50 [4, 9]: 273 ± 51.7 nM
O=C(NCc1ccc(F)cc1F)c1cc2cccnc2n(O)c1=O [XZ390, N-(2,4-difluorobenzyl)-1-hydroxy-2-oxo-1,2-dihydro-1,8-naphthyridine-3-carboxamide] | – | – | – | – | – | – | – | IC50 (HIV-1 integrase; Table 1, 3′-processing, read-out: IC50 Values 3′-Processing): 6100 ± 800 nM; IC50 (HIV-1 integrase; Table 1, strand transfer, read-out: IC50 Values Strand transfer): 41 ± 12 nM; CC50 (in vitro; Table 3): > 250000 nM; Si (selectivity index) [1]: >25,000; EC50 ([1]; Table 3): 5.1 ± 1.9 nM; EC50 [2, 7]: 438 ± 121 nM; EC50 [3, 8]: 134 ± 23 nM; EC50 [4, 9]: 4.9 ± 0.77 nM
Nc1c(C(=O)NCc2ccc(F)cc2F)c(=O)n(O)c2ncc(CCCCc3ccccc3)cc12 [XZ429, 4-Amino-N-(2,4-difluorobenzyl)-1-hydroxy-2-oxo-6-(4-phenylbutyl)-1,2-dihydro-1,8-naphthyridine-3-carboxamide] | 42000 ± 4000 nM | 1980 ± 422 nM | 12800 nM | 10.6 nM | 128 nM | 38.8 nM | 4.7 nM | –
CS(=O)(=O)CCc1cnc2c(c1)c(N)c(C(=O)NCc1ccc(F)cc1F)c(=O)n2O [XZ445, 4-Amino-N-(2,4-difluorobenzyl)-1-hydroxy-6-(2-(methylsulfonyl)ethyl)-2-oxo-1,2-dihydro-1,8-naphthyridine-3-carboxamide] | – | – | 95400 nM | 27 nM | 118 nM | 32.8 nM | 27.5 nM | IC50 (HIV-1 integrase; [15]): ~0.07 nM
Nc1c(C(=O)NCc2ccc(F)cc2F)c(=O)n(O)c2ncc(CCS(=O)(=O)CCN3CCOCC3)cc12 [XZ447, 4-Amino-N-(2,4-difluorobenzyl)-1-hydroxy-6-(2-((2-morpholinoethyl)sulfonyl)ethyl)-2-oxo-1,2-dihydro-1,8-naphthyridine-3-carboxamide] | – | – | > 250000 nM | 268 nM | 412 nM | 140 nM | 109 nM | IC50 (HIV-1 integrase; [15]): 2.5 ± 1.3 nM
Nc1c(C(=O)NCc2ccc(F)cc2F)c(=O)n(O)c2ncc(CCCCCCOC(=O)c3ccccc3)cc12 [XZ427, 6-(5-Amino-6-((2,4-difluorobenzyl)carbamoyl)-8-hydroxy-7-oxo-7,8-dihydro-1,8-naphthyridin-3-yl)hexyl benzoate] | 143000 ± 14000 nM | 3340 ± 557 nM | 14400 nM | 4.8 nM | 21 nM | 5.4 nM | 3.5 nM | –
COc1ccc2c(N)c(C(=O)NCc3ccc(F)cc3F)c(=O)n(O)c2n1 [XZ406, 4-amino-N-(2,4-difluorobenzyl)-1-hydroxy-7-methoxy-2-oxo-1,2-dihydro-1,8-naphthyridine-3-carboxamide] | – | – | – | – | – | – | – | IC50 (HIV-1 integrase; [5]): 18000 ± 2000 nM; IC50 (HIV-1 integrase; [6]): 11 ± 2 nM; CC50 (in vitro; Table 5): 2200 ± 430 nM; EC50 ([1]; Table 5): 30.3 ± 9.1 nM; SI ([1]; Table 5, ratio of CC50 to EC50): 73; EC50 ([2]; Table 5, G1405-Q148H double mutant, read-out: EC50 (nM, IN Mutants) SH): 3600 ± 1600 nM; EC50 ([3]; Table 5, read-out: EC50 (nM, IN Mutants) N155H): 400 ± 101 nM; EC50 ([4]; Table 5, read-out: EC50 (nM, IN Mutants) Y143R): 62.2 ± 25.6 nM
Nc1c(C(=O)NCc2ccc(F)cc2F)c(=O)n(O)c2ncc(Br)cc12 [XZ418, 4-Amino-6-bromo-N-(2,4-difluorobenzyl)-1-hydroxy-2-oxo-1,2-dihydro-1,8-naphthyridine-3-carboxamide] | 7900 ± 800 nM | 3.2 ± 0.5 nM | > 250000 nM | 0.99 nM | 112 nM | 18.8 nM | 1.95 nM | –
O=C(NCc1ccc(F)cc1F)c1c(O)c2cc(CCCCCO)cnc2n(O)c1=O [XZ421, N-(2,4-Difluorobenzyl)-1,4-dihydroxy-6-(5-hydroxypentyl)-2-oxo-1,2-dihydro-1,8-naphthyridine-3-carboxamide] | 14300 ± 1100 nM | 12.4 ± 2.6 nM | > 250000 nM | 23.7 nM | 28.5 nM | 31.6 nM | 8.3 nM | –
Nc1c(C(=O)NCc2ccc(F)cc2F)c(=O)n(O)c2ncc(CCC(=O)O)cc12 [XZ444, 3-(5-Amino-6-((2,4-difluorobenzyl)carbamoyl)-8-hydroxy-7-oxo-7,8-dihydro-1,8-naphthyridin-3-yl)propanoic acid] | – | – | > 250000 nM | 1.9 nM | 195 nM | 10.3 nM | 4.9 nM | IC50 (HIV-1 integrase; [15]): 3.9 ± 1.3 nM
